{
  "source": "patent US10328029B2",
  "about": "“Pharmaceutical composition” (Cycle Pharmaceuticals, priority 2014, dated 2019)",
  "format_in_all_cases": "physicochemical",
  "key": {"[1]": {"test": "Process stability of nitisinone in acetone, in water and on drying (HPLC purity)", "protocol": "It is a requirement of GMP manufacturing that the final recrystallisation includes a filtration through a polishing filter to remove particulates, and so the GMP process would involve filtration of the hot acetone solution. This means that it is likely that the solution of Nitisinone in acetone at 45° C. could be held at elevated temperature for a prolonged period of time. The stability of stage 1 at 45° C. was tested over a 6 hour period to confirm that the Nitisinone would not degrade under these conditions (Table 4). […] Therefore, acetone could be used in the hot filtration step of the GMP process.\nOn scale-up, drying from water can often take much longer than on lab scale and could potentially result in degradation of the product, especially with a product that could potentially be prone to hydrolysis. Following filtration of Nitisinone from the final recrystallisation, the filter-cake was washed with water to remove the residual mother liquors. Due to its high solubility in acetone and other organic solvents, a solvent wash was not appropriate as high yield losses would likely be incurred. A water wash also helped remove residual inorganics. Drying studies were therefore carried out to determine the stability of the recrystallised material and try to ensure that there would be no unexpected degradation during the drying phase of the scale-up manufacture (Table 5).\nTwo separate batches were heated over a 60 hour period with purity and KF values taken (entries 1-10). […] A sample of Nitisinone was suspended in water and heated at 40° C. with no vacuum for 60 hours (entries 11-13), to simulate poor drying. […] A second sample was wetted each morning and dried under vacuum overnight to study the effect of repeatedly wetting and drying the sample (entries 14-19)."}, "[2]": {"test": "Excipient compatibility: nitisinone mixed with fillers/lubricants, stored at 40° C./75% RH, cyclised impurity by HPLC", "protocol": "In order to identify suitable excipients to develop a temperature stable formulation, 4 standard fillers and 5 lubricants were mixed with nitisinone and stored under accelerated conditions for 1 week and 3 weeks. 10 preparations for each excipient were prepared by weighing approximately 10 mg of nitisinone and 500 mg of the excipient into a glass vial and mixing together by gentle swirling. To 5 lots of preparations, 50 μl of water was added to wet the sample. For a control, 10 preparations of the drug substance were prepared by weighing approximately 10 mg nitisinone into a suitable glass vial and to 5 lots of preparations, 50 μl of water was added to wet the sample.\nHPLC analysis was used to quantify the relative amount of the cyclised impurity (RRT 0.7) for each formulation at each time point (Tables 7 and 8).\n(§1) In the foregoing examples, the HPLC conditions were as follows: […]"}, "[3]": {"test": "API stability study of nitisinone under long-term and accelerated storage (HPLC)", "protocol": "Data provided by the stability testing programme was conducted with the substance under investigation stored in the actual packaging used for storage and distribution. This was to determine if the substance remained compliant with the ICH specification criteria when tested over the period of its shelf life plus one year.\nA sample of approximately 150 g of substance was used for the testing programme, with individual samples being approximately 7 g in size. The test was designed to simulate the product package, i.e. the sample was packed in a polythene bag, sealed and then placed inside another polythene bag liner. The sample was then held in a fibreboard cask with a fibreboard lid.\nThe sample was stored in an incubator maintained at 25° C.±2° C./60%±5% relative humidity (RH), and 40° C.±2° C./75%±5% RH.\nAfter testing of an initial sample, a sample was tested at certain time intervals (Table 6), i.e. monthly (0 m, 1 m, 2 m, etc.).\nThere was no decrease in purity and the cyclised impurity remained below the identification threshold (0.10%) throughout the stability testing (measured by HPLC).\nas §1"}},
  "note": "“Also recorded” adds a separate entry of the source.",
  "data": [
    {"smiles": "O=C1CCCC(=O)C1C(=O)c1ccc(C(F)(F)F)cc1[N+](=O)[O-]", "note": "[Nitisinone, 2-[2-nitro-4-(trifluoromethyl)benzoyl] cyclohexane-1,3-dione]", "values": [
      {"measurement": "stability of stage 1 nitisinone in acetone (purity, in words)", "setting": "[1]; acetone, 45° C., over a 6 hour period", "value": "No loss of purity was observed"},
      {"measurement": "stability of Nitisinone in water (purity, in words)", "setting": "[1]; suspended in water, heated at 40° C., no vacuum, 60 hours", "value": "No loss of purity was observed"},
      {"measurement": "stability of recrystallised Nitisinone to extended drying (purity, in words)", "setting": "[1]; two batches heated over a 60 hour period", "value": "little to no loss in purity"},
      {"measurement": "Cyclised Impurity - RRT 0.7", "setting": "[2]; 1 week, Dry", "value": 0.02, "unit": "norm %"},
      {"measurement": "Cyclised Impurity - RRT 0.7", "setting": "[2]; 1 week, Wet (50 μl water)", "value": 0.07, "unit": "norm %"},
      {"measurement": "Cyclised Impurity - RRT 0.7", "setting": "[2]; 3 weeks, Dry", "value": 0.13, "unit": "norm %"},
      {"measurement": "Cyclised Impurity - RRT 0.7", "setting": "[2]; 3 weeks, Wet (50 μl water)", "value": 0.20, "unit": "norm %"},
      {"measurement": "Cyclised Impurity - RRT 0.7", "setting": "[2]; Initial, about 10 mg nitisinone + 500 mg excipient", "value": 0.01, "unit": "norm %"},
      {"measurement": "API stability with respect to cyclised impurity (in words)", "setting": "[3]; 25° C./60% RH and 40° C./75% RH, listed as API", "value": "no formation of the aforementioned cyclised impurity was observed; also recorded: no deviation from specification"},
      {"measurement": "Stability of API over time", "setting": "[3]; 25° C./60% RH, 0 m", "value": 99.90, "unit": "% w/w"},
      {"measurement": "Stability of API over time", "setting": "[3]; 25° C./60% RH, 1 m", "value": 99.87, "unit": "% w/w"},
      {"measurement": "Stability of API over time", "setting": "[3]; 25° C./60% RH, 2 m", "value": 99.88, "unit": "% w/w"},
      {"measurement": "Stability of API over time", "setting": "[3]; 25° C./60% RH, 3 m", "value": 99.91, "unit": "% w/w"},
      {"measurement": "Stability of API over time", "setting": "[3]; 25° C./60% RH, 6 m", "value": 99.91, "unit": "% w/w"},
      {"measurement": "Stability of API over time", "setting": "[3]; 40° C./75% RH, 0 m", "value": 99.90, "unit": "% w/w"},
      {"measurement": "Stability of API over time", "setting": "[3]; 40° C./75% RH, 1 m", "value": 99.89, "unit": "% w/w"},
      {"measurement": "Stability of API over time", "setting": "[3]; 40° C./75% RH, 2 m", "value": 99.88, "unit": "% w/w"},
      {"measurement": "Stability of API over time", "setting": "[3]; 40° C./75% RH, 3 m", "value": 99.92, "unit": "% w/w"},
      {"measurement": "Stability of API over time", "setting": "[3]; 40° C./75% RH, 6 m", "value": 99.96, "unit": "% w/w"}
    ]}
  ]
}
